Read-outs that look alike come from different tables or passages of the source.
Key:
[1] = In vitro rat microsomal stability assay; format: in vitro ADME, rat (Sprague-Dawley); conditions: for RAT MICROSOMAL STABILITY (% REMAINING AFTER 30 MINUTES): Sprague-Dawley, microsomes, 0.5 h, 0.5 μM, pH 7.4
Outline: (§1)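 Sprague-Dawley rat or human liver microsomes; 37° C.; NADPH cofactor, also spiked into time-zero samples.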

[2] = In vitro human microsomal stability assay; format: in vitro ADME; conditions: for HUMAN MICROSOMAL STABILITY (% REMAINING AFTER 30 MINUTES): microsomes, 0.5 h, 0.5 μM, pH 7.4
Outline: as §1

[3] = test system: chronic constriction injury (CCI) model of neuropathic pain; assay: In vivo chronic constriction injury (CCI) model of neuropathic pain, mechanical allodynia (von Frey); set-up: species or system CD1 mice; conditions: 100 mg/kg oral dose, mechanical allodynia 1 hour after dosing, CCI mice, average of eight mice, vehicle 0%, control 100%; for inhibition in vivo at 100 mg/kg: Mus musculus, po, 1 h, read-out: % EFFECT
Protocol: Test compounds were evaluated for analgesic effect in an in vivo chronic constriction injury (CCI) model of neuropathic pain. CD1 mice (Charles River) were used for these studies. Prior to testing (2-4 weeks) animals underwent a surgical procedure consisting of approximately 3 loose ligatures around the sciatic nerve. Following sterilization procedures, under isofluorane anesthetic, a 1.5 cm incision was made dorsal to the pelvis. The biceps femoris and gluteous superficialis (right side) were separated and the sciatic nerve exposed, isolated, and 2-4 loose ligatures (5-0 chromic gut) with less than 1 mm spacing were placed around it. Following hemostasis, the wound was sutured (layer of muscle closed with 5-0 nylon suture, and the wound closed with surgical staples) and coated with iodine. The mice were allowed to recover on a warming plate and were returned to their home cages (soft bedding) when able to walk on their own.
Two to four weeks after the surgery, test compound was administered orally (PO) in these mice, and mechanical allodynia was evaluated 1 hour after oral dosing where the threshold to response was assessed using calibrated von Frey monofilaments. The von Frey monofilaments were applied to the hind paw at increasing forces until the animal responded by lifting its paw. Normally, the force of the von Frey monofilament was innocuous and only in the altered state (allodynia or hyperalgesia) did the animals respond to this stimulation. […] At the end of the experiment, after behavioral testing, plasma (and in some instances brain tissue) was taken for exposure analysis.
Each test compound was evaluated in eight different mice. The data reported in Table 3 represent the average value of the approximate percent effect of each compound in relieving neuropathic pain in mice receiving 100 mg/kg oral dose of the test compound. The grams of force needed to elicit a withdrawal response from the injured mouse that was challenged with vehicle was assigned a 0% effect, while the grams of force needed to elicit a withdrawal response from the control was given a 100% effect.

human TRPV3 = target: T1, human TRPV3 (Homo sapiens, UniProt Q8NET8); assay: In vitro antagonism of recombinant human TRPV3 activation (FLIPR Tetra calcium assay); format: cell-based; conditions: HEK293 cells stably expressing human TRPV3, agonist 2-APB at 80 μM
T1 construct: expressed in transfected cells
T1 sequence (Q8NET8 1-790): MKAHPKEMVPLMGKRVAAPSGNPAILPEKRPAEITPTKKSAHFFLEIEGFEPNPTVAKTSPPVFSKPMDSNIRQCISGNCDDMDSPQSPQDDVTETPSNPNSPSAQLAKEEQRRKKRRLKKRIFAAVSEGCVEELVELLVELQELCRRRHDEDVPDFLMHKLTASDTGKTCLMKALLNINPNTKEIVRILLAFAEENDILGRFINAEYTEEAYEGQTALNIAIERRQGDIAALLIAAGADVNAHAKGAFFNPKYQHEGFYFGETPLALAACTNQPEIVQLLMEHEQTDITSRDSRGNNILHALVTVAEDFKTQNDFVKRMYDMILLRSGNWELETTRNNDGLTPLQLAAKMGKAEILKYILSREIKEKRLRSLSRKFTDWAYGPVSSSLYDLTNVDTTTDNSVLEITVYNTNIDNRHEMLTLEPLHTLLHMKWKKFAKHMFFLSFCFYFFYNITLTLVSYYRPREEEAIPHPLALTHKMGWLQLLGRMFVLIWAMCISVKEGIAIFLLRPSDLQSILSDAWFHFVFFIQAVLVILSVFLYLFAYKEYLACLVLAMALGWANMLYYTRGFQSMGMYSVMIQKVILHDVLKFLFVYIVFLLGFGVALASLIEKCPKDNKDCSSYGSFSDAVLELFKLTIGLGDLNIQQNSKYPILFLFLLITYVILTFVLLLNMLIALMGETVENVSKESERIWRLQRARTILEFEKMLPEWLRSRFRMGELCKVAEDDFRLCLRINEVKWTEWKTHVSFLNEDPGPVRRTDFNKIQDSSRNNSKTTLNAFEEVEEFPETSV
Outline: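 Calcium flux read over a 10 min run: compound added at 10 s to Calcium-4-loaded human TRPV3-HEK293 cells, agonist 2-APB (80 μM, its EC80) after 3 min. IC50 derived from peak-minus-baseline signal as percentage of uninhibited 2-APB response, typically averaged over at least two runs.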

[4] = actual measured value shown parenthetically, in most cases average of at least two runs, read-out: IC50

| RAT MICROSOMAL STABILITY (% REMAINING AFTER 30 MINUTES) [1] [%] | HUMAN MICROSOMAL STABILITY (% REMAINING AFTER 30 MINUTES) [2] [%] | IC50 (human TRPV3; [4]) [nM] | SMILES | inhibition in vivo at 100 mg/kg [3] [%] | % EFFECT [3] [%] | RAT […] (% REMAINING AFTER 30 MINUTES) ([1]; rat liver microsomes (Sprague-Dawley), 0.5 μM substrate, 0.25 mg/mL microsomal protein, pH 7.4, 37° C., NADPH, 30 minutes) [%] | HUMAN […] (% REMAINING AFTER 30 MINUTES) ([2]; human liver microsomes, 0.5 μM substrate, 0.25 mg/mL microsomal protein, pH 7.4, 37° C., NADPH, 30 minutes) [%] | IC50 (human TRPV3; reported range, read-out: IC50 (range class)) [nM] |
| --- | --- | --- | --- | --- | --- | --- | --- | --- |
| 67 | 59 | 110 | O[C@H](c1ccccn1)C1(c2ccc(OC(F)(F)F)cc2)CC(F)(F)C1 [Example 128, (S)-{3,3-difluoro-1-[4-(trifluoromethoxy)phenyl]cyclobutyl}(pyridin-2-yl)-methanol] | 78 | – | – | – | – |
| 74 | >85 | 220 | OC1CC(c2ccc(Cl)c(Cl)c2)(C(O)c2ccccn2)C1 (single isomer, unassigned) [Example 118] | – | 89 | – | – | – |
| 70 | 70 | 9230 | C[C@]1(O)C[C@@](c2ccc(OC(F)(F)F)cc2)([C@@H](O)c2ccccn2)C1 [Example 250, cis-3-[(R)-hydroxy(pyridin-2-yl)methyl]-1-methyl-3-[4-(trifluoromethoxy)-phenyl]cyclobutanol] | 57 | – | – | – | – |
| 9.5 | 24 | 390 | O[C@H](c1ccccn1)[C@]1(c2ccc(Cl)c(Cl)c2)CCO1 [Example 136, (R)-[(2R)-2-(3,4-dichlorophenyl)oxetan-2-yl](pyridin-2-yl)methanol] | 52 | – | – | – | – |
| >85 | >85 | 690 | OC1CC(c2cc(C(F)(F)F)ccn2)(C(O)c2ccccn2)C1 [Example 283, trans-3-[(S)-hydroxy(pyridin-2-yl)methyl]-3-[4-(trifluoromethyl)pyridin-2-yl]cyclobutanol] | 49 | – | – | – | – |
| 69 | >85 | 570 | OC1CC(c2ccc(Cl)c(Cl)c2)(C(O)c2ccccn2)C1 (single isomer, unassigned) [Example 119] | – | 16 | – | – | – |
| 25 | 70 | 2520 | CN[C@@H]1CCC[C@H]1[C@@H](O)C1(c2ccc(Cl)c(Cl)c2)CCC1 [Example 228, (R)-[1-(3,4-dichlorophenyl)cyclobutyl][(1R,2R)-2-(methylamino)-cyclopentyl]methanol] | 52 | – | – | – | – |
| >85 | >85 | 140 | OC1CC(c2ccnc(C(F)(F)F)c2)(C(O)c2ccccn2)C1 [Example 306, trans-3-[(S)-hydroxy(pyridin-2-yl)methyl]-3-[2-(trifluoromethyl)pyridin-4-yl]cyclobutanol] | 0 | – | – | – | – |
| 41 | 54 | 760 | CC1(O)CC(c2cccc(C(F)(F)F)c2)(C(O)c2ccccn2)C1 (single isomer, unassigned) [Example 236] | 33 | – | – | – | – |
| 72 | 78 | 860 | CC1(O)CC(c2ccc(OC(F)(F)F)cc2)(C(O)c2ccccn2)C1 (single isomer, unassigned) [Example 134] | 98 | – | – | – | – |

| SMILES | RAT MICROSOMAL STABILITY (% REMAINING AFTER 30 MINUTES) [1] [%] | HUMAN MICROSOMAL STABILITY (% REMAINING AFTER 30 MINUTES) [2] [%] | IC50 (human TRPV3; [4]) [nM] | inhibition in vivo at 100 mg/kg [3] [%] | % EFFECT [3] [%] | RAT […] (% REMAINING AFTER 30 MINUTES) ([1]; rat liver microsomes (Sprague-Dawley), 0.5 μM substrate, 0.25 mg/mL microsomal protein, pH 7.4, 37° C., NADPH, 30 minutes) [%] | HUMAN […] (% REMAINING AFTER 30 MINUTES) ([2]; human liver microsomes, 0.5 μM substrate, 0.25 mg/mL microsomal protein, pH 7.4, 37° C., NADPH, 30 minutes) [%] | IC50 (human TRPV3; reported range, read-out: IC50 (range class)) [nM] |
| --- | --- | --- | --- | --- | --- | --- | --- | --- |
| C[C@]1(O)C[C@](c2cc(C(F)(F)F)ccn2)([C@H](O)c2ccccn2)C1 (relative stereo) [Example 285, cis-3-[(S)-hydroxy(pyridin-2-yl)methyl]-1-methyl-3-[4-(trifluoromethyl)-pyridin-2-yl]cyclobutanol] | – | – | 1000 | – | 59 | 69 | 83 | 501 to 1000 |

Source: US8772499B2, “TRPV3 modulators” (AbbVie Inc., priority 2011, dated 2014)
